Measured values published in patent US4764525A, “N-1H-tetrazol-5-ylbenzamides having use as antiallergy and antiinflammatory agents” (Warner-Lambert Company, priority 1987, dated 1988).

System: human basophils
Assay: HHB assay: inhibition of histamine release from human basophils
Assay type: cell-based
Settings: Anti-IgE stimulus, tested at 33 μM
Description: The HHB assay quantitates active histamine release and its inhibition by drugs, from basophils of human blood. Thus, the assay provides evaluation of the compounds of formula I for treating the conditions or diseases as is the present invention. As described herein the assay includes modifications of the method described by R. P. Siroganian in "An Automated Continuous-Flow System for the Extraction and Fluorometric Analysis of Histamine," Anal. Biochem., 57, 383-394 (1974).
Seventy ml of blood are drawn from allergic donors (chosen on the basis of adequate histamine induced by a challenge), using standard venipuncture methods, into 10 ml Vacutainers with 0.08 ml/tube 15% EDTA in water as anticoagulant. The blood samples are placed briefly on a rotary mixer. All glassware contacting the blood is siliconized. The blood is aliquoted into three plastic 50 ml centrifuge tubes and the volume is noted. Hespan (hydroxy ethyl starch), 0.5 ml per 1.0 ml of blood, is added. The tubes are inverted several times to mix and are left undisturbed at room temperature until a sharp separation is observed between the settled red cells and the leukocyte and platelet-rich plasma. This usually occurs within 35-45 minutes.
The plasma fraction is pipetted off and placed into two clean plastic 50 ml centrifuge tubes. The tubes are centrifuged for 12 minutes at 4° C. in a a 100 ml volumetric flask and 0.5 ml DMSO is added. […] If the compound is in solution, distilled water is used to bring it up to 100 ml total volume. If the drug is not in solution, 0.2 ml 1N NaOH (or HCl) is added, and then distilled water is added to yield 100 ml total solution. Five ml of the stock solution is diluted (1:2) with 5 ml of two times concentrated HACM buffer to yield the stock working concentration of 150 μM. When added to the cells and stimulus, a final test concentration of 100 μM drug results (400 μl drug, 100 μcells and 100 μchallenge agent or vehicle). Further dilutions are made with HACM buffer for 33, 10, 3.3, 1.0 μM, etc.
Short ragweed and house dust extracts (Greer Laboratories, Inc.) are supplied as aqueous extracts in stock concentrations of 40,000 and 10,000 protein nitrogen units per milliliter (PNU/ml), respectively. Aqueous solutions of anti-IgE antisera (rabbit-raised antibody) are purchased from Dako via Accurate Chemicals. The tripeptide f-met-leu-phe (fmlp) from Vega Biochemicals is used. The aqueous solutions of ragweed, house dust, and anti-IgE are diluted 1:2 with two times concentrated HACM and then further diluted with HACM to yield final stock concentrations of 6000 PNU/ml for ragweed and house dust, and a 1:50 dilution for the anti-IgE antisera. […]

Row | SMILES | inhibition at 33 µM
1 | COc1ccc(C(=O)Nc2nnn[nH]2)c(OC(C)C)c1Br [Example 2, 3-Bromo-4-methoxy-2-(1-methylethoxy)-N-1H-tetrazol-5-ylbenzamide] | 60%
2 | COc1ccc(C(=O)Nc2nnn[nH]2)c(OC(C)C)c1I [Example 4, 3-Iodo-4-methoxy-2-(1-methylethoxy)-N-1H-tetrazol-5-ylbenzamide] | 73%
3 | COc1cc(OC(C)C)c(C(=O)Nc2nnn[nH]2)cc1Br [Example 3, 5-Bromo-4-methoxy-2-(1-methylethoxy)-N-1H-tetrazol-5-ylbenzamide] | 28%
4 | COc1ccc(C(=O)Nc2nnn[nH]2)c(OC(C)C)c1 [Example 1, 4-Methoxy-2-(1-methylethoxy)-N-1H-tetrazol-5-ylbenzamide] | 41%
